Results from article PMC10671431, “New Derivatives of N-Hydroxybutanamide: Preparation, MMP Inhibition, Cytotoxicity, and Antitumor Activity” (International Journal of Molecular Sciences, 2023).

Assays:
[1] = test system: B16 melanoma; assay: Antimetastatic activity in vivo, lung metastases; design: species or system mouse
Description: Antitumor activity in vivo. The B16 mouse melanoma was used as a tumor model. The B16 melanoma tumor strain was induced in male BDF1 mice by subcutaneous inoculation of 0.2–0.5 mL of a suspension of tumor tissue in medium 199 at intervals of 12–16 days. For the experiments, BDF1 mice were inoculated with 0.3 mL of a suspension of tumor tissue diluted in a 0.9% NaCl solution at a ratio of 1:5 subcutaneously on the right side.
Compound 4 was dissolved in a 0.9% NaCl solution with 1% DMSO. […] Control animals were injected intraperitoneally with 1% DMSO in saline (0.9% NaCl) in the same volumes as the test compounds.
And MNMcont. are the mean number of metastases in the experimental and control groups, respectively.

[2] = molecular target: T1, MMP-14 (Homo sapiens, UniProt P50281); assay: MMP activity assay, fluorogenic substrate (MMP Inhibitor Profiling Kit); assay type: biochemical
T1 construct: the BML- prefix points to Enzo Life Sciences, own knowledge BML-AK308
Description: (§1) Determination of MMP activity. A fluorescently labeled substrate probe containing a fluorescent label and a fluorescence quencher, was utilized for this study. […] Enzyme activity was assessed using the MMP Inhibitor Profiling Kit (Product # BML-AK308, New York, NY, USA) according to the manufacturer’s recommendations. The nonspecific inhibitor NNGH was used as a positive control. The fluorescence of the fluorogenic substrate OmniMMP^TM RED was measured at wavelengths Ex/Em = 545/576 nm using a Spark 10M multimode plate reader (Tecan, Zurich, Switzerland). Reaction rates were expressed in relative fluorescence units (RFUs) per minute. The activity of MMPs in the presence of the studied compounds was determined as follows:Activity, % = (Vinh/Vcont) × 100,(1) where V is the initial reaction rate (RFUs/min) in the presence (Vinh) and absence (Vcont) of the studied compounds.
(§2) All tested compounds were dissolved in DMSO. The final concentration of DMSO in all samples was 0.1%. Control samples were treated with 0.1% DMSO.

[3] = molecular target: T2, MMP-9 (Homo sapiens, UniProt P14780); assay: as above; assay type: biochemical
T2 construct: the BML- prefix points to Enzo Life Sciences, own knowledge BML-AK308
T2 sequence (P14780 107-444 limits assumed): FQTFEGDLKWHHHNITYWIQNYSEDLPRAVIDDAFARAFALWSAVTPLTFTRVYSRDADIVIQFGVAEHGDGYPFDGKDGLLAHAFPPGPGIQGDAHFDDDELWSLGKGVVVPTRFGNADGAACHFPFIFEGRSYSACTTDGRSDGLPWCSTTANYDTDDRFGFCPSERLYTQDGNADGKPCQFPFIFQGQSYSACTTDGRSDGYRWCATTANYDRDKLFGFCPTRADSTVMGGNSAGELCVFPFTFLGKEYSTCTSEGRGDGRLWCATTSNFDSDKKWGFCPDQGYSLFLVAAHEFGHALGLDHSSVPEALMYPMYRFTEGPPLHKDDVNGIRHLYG
Description: as §1, §2

[4] = molecular target: T3, MMP-2 (Homo sapiens, UniProt P08253); assay: as above; assay type: biochemical
T3 construct: the BML- prefix points to Enzo Life Sciences, own knowledge BML-AK308
T3 sequence (P08253 110-446 limits assumed): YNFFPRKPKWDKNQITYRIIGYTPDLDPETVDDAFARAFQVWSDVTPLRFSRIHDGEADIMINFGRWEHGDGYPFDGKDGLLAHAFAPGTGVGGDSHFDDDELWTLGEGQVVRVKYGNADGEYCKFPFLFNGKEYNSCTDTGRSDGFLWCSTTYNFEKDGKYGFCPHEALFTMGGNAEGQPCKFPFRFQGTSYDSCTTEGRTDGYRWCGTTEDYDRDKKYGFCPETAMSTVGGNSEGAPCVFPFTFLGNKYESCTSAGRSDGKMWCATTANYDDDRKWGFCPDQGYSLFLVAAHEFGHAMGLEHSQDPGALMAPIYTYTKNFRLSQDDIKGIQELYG
Description: as §1, §2

[5] = molecular target: T4, MMP-3 (Homo sapiens, UniProt P08254); assay: as above; assay type: biochemical
T4 construct: the BML- prefix points to Enzo Life Sciences, own knowledge BML-AK308
T4 sequence (P08254 100-272 limits assumed): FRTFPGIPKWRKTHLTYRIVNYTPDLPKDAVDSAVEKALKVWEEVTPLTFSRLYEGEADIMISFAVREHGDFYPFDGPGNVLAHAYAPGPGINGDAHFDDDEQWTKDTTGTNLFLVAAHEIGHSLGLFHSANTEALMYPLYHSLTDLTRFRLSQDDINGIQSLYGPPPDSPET
Description: as §1, §2

[6] = lungs, B16 melanoma, BDF1 mice, doses as in Table 5
[7] = concentration of 1 μM (Figure 3)

Compound: O=C(CCC(=O)Nc1ccc(I)cc1)NO [Compound 4, N^1-hydroxy-N^4-(4-iodophenyl)butanediamide]
- reduction of the number of animals with metastases in the group ([1]; 300 mg/kg i.p. days 2–9): 50%
- % Inhibition of Metastases [1, 6]: 88.6%
- Mean Number of Metastases per Mouse [1, 6]: 1.3 ± 0.9
- Metastasis Rate, % [1, 6]: 50%
- Number of Animals without Metastases ([1]; of 6 animals in the group, lungs, B16 melanoma, BDF1 mice, doses as in Table 5): 3
- inhibition at 1 µM [2, 7]: ~50%
- IC50 ([2]; read-out: MMP-inhibiting activity IC50, MMP-14): 1.49 ± 0.01 µM
- inhibition at 1 µM [3, 7]: ~50%
- IC50 ([3]; read-out: MMP-inhibiting activity IC50, MMP-9): 1.06 ± 0.01 µM
- inhibition at 1 µM [4, 7]: ~50%
- IC50 ([4]; read-out: MMP-inhibiting activity IC50, MMP-2): 1.26 ± 0.01 µM
- effect on MMP-3 activity [5, 7]: no effect
- concentration with significant effect on MMP-3 activity ([5]; dose–effect relationship (Figure 4)): approximately 10 μM
- IC50 ([5]; read-out: MMP-inhibiting activity IC50, MMP-3): > 10 µM
